Literature values in US6071923A, “Retinoyloxy aryl-substituted alkylene butyrates useful for the treatment of cancer and other proliferative diseases” (Bar-Ilan University, priority 1997, dated 2000).
Where “and” joins values, the source holds several entries; their conditions need not be identical. Identical values can stand only once. Like-named read-outs stand apart in the source and are kept apart here.

Test system: HL-60 cells
[1] = HL-60 human promyelocytic cell line, agent alone, read-out: ED50, induction of differentiation of HL-60 cells, agent alone

| EC50 (HL-60 cells, BA combined with about 28 nM RA, read-out: ED50 value for BA in combination with RA) | SMILES | EC50 [1] | dose reduction index value (HL-60 cells, BA ED50 alone versus with about 28 nM RA) |
| --- | --- | --- | --- |
|  | CC1=C(/C=C/C(C)=C/C=C/C(C)=C/C(=O)O)C(C)(C)CCC1 [RA, retinoic acid] | 0.13 µM |  |
| ~75 µM | CCCC(=O)O [BA, Butyric acid] | 444 µM and ~400 µM | about 6 fold |
